Reference: patent US5961952A, “^99m Tc-tertiary-butyl isonitrile as breast tumor imaging agents” (DuPont Pharmaceuticals Company, priority 1997, dated 1999)

Columns and labels:
SKBR3 tumor cells = assay: Tumor cell washout kinetics (t1/2); format: cell-based, human; conditions: washout from SKBR3 cells; for 1/2 life SKBR3 Tumor Cells: second phase of biphasic kinetics
Description: (§1) Two cell lines are grown on cover slips: SKBR3 human breast tumor with known high membrane potential, and an epithelial cell line (CV1) of low membrane potential. Breast tumor cells (SKBR3) and normal epithelial cells (CV-1) are grown on cover slips (5×10^5 cells) and incubated for 60 min with 100 μCi of ^99m Tc-isonitrile. The slips are then incubated for 120 min in nonisotopic medium with repeated rinses. ^99m Tc activity remaining on the slips is determined at 0, 0.5, 1, 1.5, and 2 hr. Results are expressed as the ratio of tumor/normal ^99m Tc activity at each of the times. Values are the mean of 4 slips per cell line.
The half lives were also calculated for the washout of ^99m Tc-isonitriles from SKBR3 cells.

SKBR3 breast tumor cells = assay: Uptake assay in SKBR3 breast tumor cells; format: cell-based, human; conditions: average of two assays, variance 5-20%
Description: (§2) The cell uptake assay protocol was developed by Delmon-Moingeon et al.^10 Breast tumor cells (SKBR3) were incubated in media over a 2 hr time course with each test sample. This line has been identified as having high membrane potential and has been characterized for uptake of ^99m Tc-sestamibi. […] The first time point (10 min.) was used to compare compounds, as this was felt to represent the non-equilibrium kinetics of delivery experienced in vivo.

breast tumors = conditions: J. Nucl. Med. 1993, 34:149P; cited from earlier work
A549 lung tumor cells = assay: Uptake assay in A549 lung tumor cells; format: cell-based; conditions: average of two assays, variance 5-20%
Description: [Worded in the source for another cell line; this cell line is reported under the same test.] as §2

[1] = system: SKBR3 human breast tumor cells vs CV-1 normal epithelial cells; assay: Washout assay: retention in an adherent cell assay, ratio of tumor (SKBR3)/normal (CV-1); format: cell-based; conditions: for Retention, ratio of tumor/normal 99mTc activity: SKBR3/CV-1, mean of 4 slips per cell line
Description: as §1
The washout assay characterizes the retention of compounds having gained access to the cell. A significant feature of this assay is that each cover slip was given a cell count at the end of the assay, and results were corrected for actual cell density. Because of high nonspecific binding to the coverslips, early times during washout are not meaningful, and so actual uptake and pharmacokinetics during the first phase of washout are not available. The results, however, are useful in predicting prolonged retention of compounds after blood levels have cleared.

[2] = system: HBL100 nontransformed breast cells; assay: Uptake assay in HBL100 nontransformed breast cells; format: cell-based; conditions: average of two assays, variance 5-20%
[3] = system: breast tumors in c-neu oncomice; assay: Pairwise imaging in the c-neu oncomouse; format: in vivo, mouse; conditions: for Mean of Tumor Ratio Test/99mTc-sestamibi +/- Std Dev: paired imaging, c-neu oncomice, 6 animals (14 tumors), ** p < .01
Text: The pairwise model was designed to directly compare the images of ^99m Tc-TBI with ^99m Tc-sestamibi. The same mouse was imaged at two separate times within 96 hr of each other with the test compound at one time and ^99m Tc-sestamibi at the other. The order of test and reference compound injected were random, but each study included at least an n=2 in each direction.
Female c-neu oncomice (18-30 g) and FVB wildtype mice were used in the pairwise studies. Mice with breast tumors between 1-15 mm were selected for imaging. Animals were anesthetized with sodium pentobarbital (IP) at a dose of 80 mg/kg. Tumors were measured with dial calipers and recorded on mouse templates. The tail was immersed in hot water for 1-2 min, wiped with alcohol, and injected via the tail vein (28 gauge insulin needle) with […] (0.15mL) of prepared ^99m Tc-TBI. The mouse was secured in a supine position on the dissection board with limbs and head extended to expose the chest area for optimal imaging of breast tumors. All image acquisitions were performed using a Picker Digital Dyna Gamma Camera, a Siemens MicroDelta terminal/MAXDELTA system, and a custom-made 1 mm pinhole collimator mounted on the gamma camera. The general static acquisition protocol was employed, using an acquisition matrix of 256×256 pixels, in word mode. The mouse was placed at a distance of 3 cm from the surface of the dissection board to the bottom of the collimator. The anterior view of the upper torso of the animal was acquired at each time point. Consecutive images were collected starting at 10 min post injection. Six 10 min images were collected at the 3 cm distance and one 10 min image was collected of the whole body at 15 cm to determine any tail vein activity. […] Total activity injected was determined by measuring the syringe before and after injection, then corrected for decay back to the time of injection. The pairwise images within each study were normalized for injected dose and regions of interest were taken over breast tumors and the heart. The mean ratio of ^99m Tc-TBI to ^99m Tc-sestamibi in the tumor was reported.

[4] = system: breast adenocarcinomas in c-neu oncomice; assay: Dual label whole body autoradiography and histochemistry; format: in vivo, mouse; conditions: c-neu OncoMouse, whole body autoradiography
Description: The test compound was given i.v. to a transgenic c-neu mouse (OncoMouse™). This mouse has been genetically constructed to spontaneously produce breast tumors. The tumors develop with the same cribriform pattern as observed in human tumors and have a similar pattern of blood supply.
Female c-neu oncomice bearing breast adenocarcinomas >0.5 cm in diameter were injected i.v. with 1-3 mCi of ^99m Tc-TBI and 5 μCi of C-14 2-deoxy-D-glucose. The mice were sacrificed at 30 min post injection by CO2 inhalation. The carcass was embedded and frozen in embedding medium and 20μ frozen sections were obtained in a cryotome. Autoradiograms of sections and standards were obtained on Kodak SB5 X-ray film. Adjacent sections (5μ) were obtained and stained with hemotoxylin and eosin (H&E). Images were digitized on a LOATS video-based computerized densitometer, and regions of intersect were obtained (% ID/g).

heart = conditions: Example 5 of Bergstein et al, U.S. Pat. No. 4,988,827; compared with ether isonitriles; cited from earlier work

| Compound | 1/2 life SKBR3 Tumor Cells (SKBR3 tumor cells) | Uptake (% of total) (SKBR3 breast tumor cells; SKBR3, 10 minutes) [%] | Uptake (% of total) (SKBR3 breast tumor cells; SKBR3, 20 minutes) [%] | Uptake (% of total) (SKBR3 breast tumor cells; SKBR3, 60 minutes) [%] | Uptake (% of total) (A549 lung tumor cells; A549, 10 minutes) [%] | Uptake (% of total) (A549 lung tumor cells; A549, 20 minutes) [%] | Uptake (% of total) (A549 lung tumor cells; A549, 60 minutes) [%] | Retention, ratio of tumor/normal 99mTc activity ([1]; washout time 0 hr) | Retention, ratio of tumor/normal 99mTc activity ([1]; washout time 0.5 hr) | Retention, ratio of tumor/normal 99mTc activity ([1]; washout time 1 hr) | Retention, ratio of tumor/normal 99mTc activity ([1]; washout time 1.5 hr) | Retention, ratio of tumor/normal 99mTc activity ([1]; washout time 2 hr) | Uptake (% of total) ([2]; HBL100, 10 minutes) [%] | Uptake (% of total) ([2]; HBL100, 20 minutes) [%] | Uptake (% of total) ([2]; HBL100, 60 minutes) [%] | Mean of Tumor Ratio Test/99mTc-sestamibi +/- Std Dev [3] | other results |
| --- | --- | --- | --- | --- | --- | --- | --- | --- | --- | --- | --- | --- | --- | --- | --- | --- | --- |
| [C-]#[N+]CC(C)(C)OC.[C-]#[N+]CC(C)(C)OC.[C-]#[N+]CC(C)(C)OC.[C-]#[N+]CC(C)(C)OC.[C-]#[N+]CC(C)(C)OC.[C-]#[N+]CC(C)(C)OC.[Tc] [MIBI, reference compound] | 120.5 | 1.8 | 4.5 | 17.2 | 0.7 | 2.5 | 7.3 | 38 | 36 | 34 | 29 | 26 | 0.9 | 3.4 | 8.8 | 1 | sensitivity for imaging breast tumors (breast tumors): > 90%; specificity for imaging breast tumors (breast tumors): > 70%; correlation between breast tumor retention and tissue viability [4]: strong correlation |
| ^99m Tc-tertiary-butyl isonitrile complex [TBI] | 656.0 | 71.1 | 68.1 | 67 | 49.8 | 45.3 | 43.1 | 12 | 24 | 31 | 35 | 37 | 61.3 | 62.4 | 64.3 | 1.33 +/-0.43 | increase in t1/2 (longer retention) compared with 99mTc-sestamibi (SKBR3 tumor cells): 6 fold; retention in tumor cells during washout ([1]; tumor cell culture, in words): prolonged retention in tumor cells during washout; heart/liver and heart/lung uptake ratios (heart): low heart/liver and heart/lung uptake ratios; tumor uptake and retention in vivo, relative to 99mTc-sestamibi ([3]; in words): significantly increased tumor uptake and retention in vivo; increase in tumor retention/uptake compared with 99mTc-sestamibi ([3]; pairwise imaging, c-neu OncoMouse, p<0.01): 133% |
